Measured values reported in patent publication US11098102B2, “Insulin conjugates” (SANOFI, priority 2018, dated 2021).
Marks after values point to notes of the source that are not given here.

Columns and labels:
[1] = biological target: T1, immobilized human serum albumin (Homo sapiens, UniProt P02768); assay: Albumin binding: affinity chromatography on columns with immobilized human serum albumin (net retention time); conditions: isolated binders; HSA column 25° C., PBS pH 7.4/isopropanol gradient
T1 construct: purchased Chiralpak (Chiraltech) 34712
Experimental: In order to identify suitable binder molecules, which when bound to a peptide, such as an insulin, are able to improve the half-life in plasma and to prolong the profile of action, a system was established based on affinity chromatography with serum albumin columns, i.e. columns with immobilized serum albumin.
The net retention time of the binders (samples) was calculated according to the following formula: Net retention time=RetTimeSample−RetTimet0 marker
• Instrument: Waters Alliance 2795/Waters PDA 2996 or Waters H-Class UPLC equipped with a Waters Acquity photodiode-array detector • Software: Waters Empower 3 • Column: […]® HSA 50×4 mm; 5 μm Particle size • Chiraltech Order Numbers: HSA: 34712 • Eluent A: Phosphate Buffer saline (PBS) at pH=7.4 • Gibco PBS pH7.4 (10×) Phosphate Buffered Saline 500 ml; • Order Number: 70011-036 (500 ml) • Eluent B: Isopropanol • Fisher Order Number: A461-1 (10 • Gradient:
• Column temperature: 25° C. • Flow rate: 1.0 ml/min • Detection: λ=220 nm • Injection volume: 20 μL • Sample Conc.: 1 mg/ml insulin solution in PBS for insulin samples • 5 μL of 10 mM DMSO stock solution (DMSO evaporated and re-dissolved in 200 μL i-propanol/water 1:1 v/v) for isolated binder samples (250 μM, 0.2 mg/ml at 800 Da MolWeight) • t0 marker Sodium Nitrate (NaNO3) solution in water, 0.05 mg/ml • Diluted from aqueous 1 mg/ml stock solution (Fluka Order Number: 74246-100ML) • Reported Value Net retention time of sample: RetTime Sample−RetTime t0 marker
Affinity chromatography was carried out i) for insulin conjugates according to Examples 3.3 and 3.4 on a Waters Alliance Separation Module 2695 equipped with a Waters photodiode-array detector 2996 or Waters H-Class UPLC equipped with a Waters Acquity photodiode-array detector and ii) for isolated binders according to Example 2.11 on a Waters Alliance Separation Module 2795 equipped with a Waters photodiode-array detector 2996 or Waters H-Class UPLC equipped with a Waters Acquity photodiode-array detector.
Columns with immobilized human serum albumin (50×4 mm; 5 μm particle size) were purchased from Chiralpak and used for separations.
The columns with immobilized serum albumin were kept at 25° C. during the LC run, UV detection was carried out at 220 nm and injection volume was 20 μL.
The net retention time of the samples was reported according to Net retention time=RetTime Sample−RetTime t0 marker

[2] = biological target: T2, insulin receptor isoform B (IR-B) (Homo sapiens, UniProt P06213); assay: Insulin receptor autophosphorylation assay (In-Cell Western, CHO cells, Example 8B); assay type: cell-based; set-up: expressed in transfected cells; host or cells: CHO cells; conditions: relative to human insulin
[3] = biological target: T2, insulin receptor isoform B (IR-B); assay: Insulin receptor binding affinity assay of insulin analogs (Example 8A, SPA competition binding); set-up: expressed in transfected cells; host or cells: CHO cells overexpressing the IR; isolated plasma membranes; conditions: relative to human insulin; a value of 0 means below the detection limit
Experimental: Methods for determining the binding affinity of an insulin analog to an insulin receptor are well known in the art. […] The insulin receptor can be present in a membrane of a cell, e.g. of CHO (Chinese Hamster Ovary) cell, which overexpresses a recombinant insulin receptor. In an embodiment, the insulin receptor binding affinity is determined as described in the Examples section.
Insulin receptor binding affinity for the analogs listed in Table 4 was determined as described in Hartmann et al. (Effect of the long-acting insulin analogs glargine and degludec on cardiomyocyte cell signaling and function. Cardiovasc Diabetol. 2016; 15:96). Isolation of insulin receptor embedded plasma membranes (M-IR) and competition binding experiments were performed as previously described (Sommerfeld et al., PLoS One. 2010; 5 (3): e9540). Briefly, CHO-cells overexpressing the IR were collected and re-suspended in ice-cold 2.25 STM buffer (2.25 M sucrose, 5 mM Tris-HCl pH 7.4, 5 mM MgCl2, complete protease inhibitor) and disrupted using a Dounce homogenizer followed by sonication. The homogenate was overlaid with 0.8 STM buffer (0.8 M sucrose, 5 mM Tris-HCl pH 7.4, 5 mM MgCl2, complete protease inhibitor) and ultra-centrifuged for 90 min at 100,000 g. Plasma membranes at the interface were collected and washed twice with phosphate buffered saline (PBS). The final pellet was re-suspended in dilution buffer (50 mM Tris-HCl pH 7.4, 5 mM MgCl2, complete protease inhibitor) and again homogenized with a Dounce homogenizer. Competition binding experiments were performed in a binding buffer (50 mM Tris-HCl, 150 mM NaCl, 0.1% BSA, complete protease inhibitor, adjusted to pH 7.8) in 96-well microplates. In each well 2 μg isolated membrane was incubated with 0.25 mg wheat germ agglutinin polyvinyltoluene polyethylenimine scintillation proximity assay (SPA) beads. […] The radioactivity was measured at equilibrium in a microplate scintillation counter (Wallac Microbeta, Freiburg, Germany).”

[4] = biological target: Insulin degrading enzyme, IDE (Homo sapiens, UniProt P14735); assay: In vitro proteolytic stability against insulin degrading enzyme (Example 9); assay type: in vitro ADME; conditions: 37° C., 2 μM
Experimental: (§1) The stability determination was done using appropriate time points (for SIF and SGF 15, 30, 60, 120 and 240 minutes; for proteases 15, 30, 60 and 120 minutes). The incubation was done at 37° C. and the % of remaining parent compound was calculated in reference to a TO time point.
(§2) For the determination of the parent compound an appropriate bioanalytical LC-MS/MS or LC-HRMS method was used, using the supernatant, after protein precipitation with ethanol (1 eq. v/v) and a centrifugation step.
(§3) Compounds were dissolved in diluted hydrochloric acid at a final concentration of 40 μM. The compound concentration in the assay was 2 μM. A 1:20 dilution of the working solution was done into the protease buffer and samples are then incubated at 37° C., under stirring. At the appropriate time point and aliquot was taken, the reaction was quenched ethanol (1 eq. v/v), than centrifuged. The supernatant was analyzed.

[5] = biological target: T3, simulated gastric fluid (pepsin) (Sus scrofa, UniProt P00791); assay: In vitro stability in simulated gastric fluid (Example 9); assay type: in vitro ADME, porcine; conditions: 37° C., 2 μM
T3 construct: from tissue; host or cells: porcine stomach mucosa
Experimental: Two grams of sodium chloride and 3.2 g of purified pepsin (from porcine stomach mucosa, with an activity of 800 to 2500 units per mg of protein) were dissolved in 7.0 ml of hydrochloric acid. The volume was adjusted with water up to 1000 ml.
as §1, §2, §3

[6] = biological target: α-Chymotrypsin (Bos taurus, UniProt P00766); assay: In vitro proteolytic stability against α-chymotrypsin (Example 9); assay type: in vitro ADME; conditions: 37° C., 2 μM
Experimental: as §1, §2, §3

[7] = biological target: Cathepsin D (Homo sapiens, UniProt P07339); assay: In vitro proteolytic stability against cathepsin D (Example 9); assay type: in vitro ADME; conditions: 37° C., 2 μM
Sequence of Cathepsin D (P07339 65-412, species assumed): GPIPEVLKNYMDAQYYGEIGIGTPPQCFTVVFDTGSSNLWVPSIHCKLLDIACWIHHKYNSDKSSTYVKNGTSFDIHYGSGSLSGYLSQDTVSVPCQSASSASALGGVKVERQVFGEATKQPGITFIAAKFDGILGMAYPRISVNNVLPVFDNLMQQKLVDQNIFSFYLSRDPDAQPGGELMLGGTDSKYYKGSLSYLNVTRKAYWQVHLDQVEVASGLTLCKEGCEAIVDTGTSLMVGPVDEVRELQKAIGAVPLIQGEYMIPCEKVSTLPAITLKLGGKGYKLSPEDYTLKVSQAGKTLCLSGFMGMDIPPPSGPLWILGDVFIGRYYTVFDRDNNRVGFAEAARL
Experimental: as §1, §2, §3

T2 sequence (P06213 28-758 limits assumed): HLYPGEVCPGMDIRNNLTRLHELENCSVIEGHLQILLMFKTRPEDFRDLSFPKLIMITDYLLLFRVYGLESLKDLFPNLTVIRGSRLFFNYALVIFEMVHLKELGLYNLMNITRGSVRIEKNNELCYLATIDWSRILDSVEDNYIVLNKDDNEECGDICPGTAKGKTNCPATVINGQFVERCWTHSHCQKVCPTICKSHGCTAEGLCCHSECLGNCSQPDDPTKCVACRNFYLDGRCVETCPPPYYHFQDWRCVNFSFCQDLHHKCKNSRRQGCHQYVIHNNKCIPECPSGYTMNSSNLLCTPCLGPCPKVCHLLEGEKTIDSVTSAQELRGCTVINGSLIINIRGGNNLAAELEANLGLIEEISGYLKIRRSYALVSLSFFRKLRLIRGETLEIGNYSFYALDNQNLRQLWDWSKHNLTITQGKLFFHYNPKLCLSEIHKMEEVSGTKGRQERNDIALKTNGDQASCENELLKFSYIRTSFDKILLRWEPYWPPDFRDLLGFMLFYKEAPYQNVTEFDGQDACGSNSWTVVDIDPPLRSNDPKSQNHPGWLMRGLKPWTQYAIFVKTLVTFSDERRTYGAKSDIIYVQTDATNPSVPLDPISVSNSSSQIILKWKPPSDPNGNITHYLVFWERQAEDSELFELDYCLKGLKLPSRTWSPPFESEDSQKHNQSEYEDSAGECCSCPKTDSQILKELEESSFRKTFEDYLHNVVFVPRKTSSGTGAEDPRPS
T2 sequence (P06213 763-1382 limits assumed): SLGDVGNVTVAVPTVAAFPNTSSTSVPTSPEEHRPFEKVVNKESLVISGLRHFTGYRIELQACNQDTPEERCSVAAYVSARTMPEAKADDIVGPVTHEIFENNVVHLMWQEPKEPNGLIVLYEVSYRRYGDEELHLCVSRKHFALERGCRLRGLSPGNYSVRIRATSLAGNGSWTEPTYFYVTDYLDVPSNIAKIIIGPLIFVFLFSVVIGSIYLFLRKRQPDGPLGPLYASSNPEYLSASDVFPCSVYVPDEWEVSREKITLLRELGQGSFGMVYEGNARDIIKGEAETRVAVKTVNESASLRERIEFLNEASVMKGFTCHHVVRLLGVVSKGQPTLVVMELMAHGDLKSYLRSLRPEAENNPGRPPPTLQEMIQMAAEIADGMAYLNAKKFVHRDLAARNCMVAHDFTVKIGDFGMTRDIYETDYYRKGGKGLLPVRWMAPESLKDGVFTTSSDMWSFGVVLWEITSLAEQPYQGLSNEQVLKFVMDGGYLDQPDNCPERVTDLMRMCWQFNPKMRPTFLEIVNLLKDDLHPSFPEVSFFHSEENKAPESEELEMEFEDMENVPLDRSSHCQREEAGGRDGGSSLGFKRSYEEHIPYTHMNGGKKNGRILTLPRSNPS
T1 sequence (P02768 25-609): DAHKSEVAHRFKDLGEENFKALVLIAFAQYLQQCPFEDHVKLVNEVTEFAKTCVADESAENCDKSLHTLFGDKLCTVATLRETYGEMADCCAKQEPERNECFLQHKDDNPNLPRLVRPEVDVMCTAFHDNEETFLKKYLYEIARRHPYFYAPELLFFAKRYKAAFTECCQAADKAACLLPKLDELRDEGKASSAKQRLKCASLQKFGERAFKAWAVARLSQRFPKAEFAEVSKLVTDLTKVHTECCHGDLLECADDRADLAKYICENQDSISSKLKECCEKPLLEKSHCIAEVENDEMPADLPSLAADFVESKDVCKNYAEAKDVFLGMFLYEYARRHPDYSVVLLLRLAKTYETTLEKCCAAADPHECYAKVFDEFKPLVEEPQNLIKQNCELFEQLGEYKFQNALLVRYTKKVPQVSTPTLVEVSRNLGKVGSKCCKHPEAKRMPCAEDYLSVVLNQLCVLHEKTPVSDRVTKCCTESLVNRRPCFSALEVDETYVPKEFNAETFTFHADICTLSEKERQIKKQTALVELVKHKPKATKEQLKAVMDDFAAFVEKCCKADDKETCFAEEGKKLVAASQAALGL
T3 sequence (P00791 60-385): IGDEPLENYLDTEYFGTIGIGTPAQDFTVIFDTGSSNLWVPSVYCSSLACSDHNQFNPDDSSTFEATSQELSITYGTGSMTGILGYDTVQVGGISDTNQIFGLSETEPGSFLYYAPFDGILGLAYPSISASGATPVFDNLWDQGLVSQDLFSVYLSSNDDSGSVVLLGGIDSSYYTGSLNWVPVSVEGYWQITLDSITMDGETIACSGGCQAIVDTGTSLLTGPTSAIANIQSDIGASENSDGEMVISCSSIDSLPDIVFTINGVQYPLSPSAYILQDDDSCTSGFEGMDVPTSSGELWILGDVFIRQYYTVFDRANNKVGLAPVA

With O=C(O)CCCCCCCCCCCOc1ccc(CCc2ccc(S(=O)(=O)Nc3ncc(C(=O)NCCOCCOCC(=O)NCCOCCOCC(=O)O)cn3)cc2)cc1 [Binder 3] as the compound, how does the “NRT [min] (net retention time on columns with immobilized human serum albumin)” value (“NRT [min]” for short) [1] read?
The value was 17.51 min.

And the autophosphorylation activity [2]?
The autophosphorylation activity was 0.34.

And the Insulin-receptor binding affinity [3]?
Its Insulin-receptor binding affinity is 0.24.

Which “NRT [min]” value [1] does the source give for O=C(O)CCCCCCCCCCCCCCCCCc1ccc(S(=O)(=O)Nc2ncc(C(=O)NCCOCCOCC(=O)NCCOCCOCC(=O)O)cn2)cc1 [Binder 4] here?
The value was 15.75 min.

And the autophosphorylation activity [2]?
The autophosphorylation activity was 0.4.

What about the Insulin-receptor binding affinity [3] of the same compound?
Its Insulin-receptor binding affinity is 0.57.

Which results are given for O=C(O)CCCCCCCCCc1ccc(CCOc2ccc(S(=O)(=O)Nc3ncc(C(=O)NCCOCCOCC(=O)NCCOCCOCC(=O)O)cn3)cc2)cc1 [Binder 10]?
NRT [min] (net retention time on columns with immobilized human serum albumin) [1]: 15.65 min; autophosphorylation activity [2]: 0.31; Insulin-receptor binding affinity [3]: 0.37

Which “NRT [min]” value [1] does the source give for O=C(O)CCCCCCCCCCCCCc1ccc(Oc2ccc(S(=O)(=O)Nc3ncc(C(=O)NCCOCCOCC(=O)NCCOCCOCC(=O)O)cn3)cc2)cc1 [Binder 11] here?
Its value is 14.52 min.

What about the “Percent remaining insulin analog, Insulin degrading enzyme, IDE (30 minutes)” value [4] of the same compound?
Its value is 12%.

And the autophosphorylation activity [2]?
Its autophosphorylation activity is 0.06.

And the Insulin-receptor binding affinity [3]?
Its Insulin-receptor binding affinity is 0.01.

What does the source list for O=C(O)CCCCCCCCCCCCCCc1cc(Oc2ccc(S(=O)(=O)Nc3ncc(C(=O)NCCOCCOCC(=O)NCCOCCOCC(=O)O)cn3)cc2)ccc1F [Binder 13]?
NRT [min] (net retention time on columns with immobilized human serum albumin) [1]: 15.29 min; autophosphorylation activity [2]: 0.1; Insulin-receptor binding affinity [3]: 0.11

O=C(O)CCCCCCCCCCCOc1ccc(S(=O)(=O)Nc2ncc(C(=O)NCCOCCOCC(=O)NCCOCCOCC(=O)O)cn2)cc1 [Binder 16] was tested. Which “NRT [min]” value [1] did it give?
Its value is 11.88 min.

And the “Percent remaining insulin analog, Insulin degrading enzyme, IDE (30 minutes)” value [4]?
Its value is 88%.

What about the autophosphorylation activity [2] of the same compound?
The autophosphorylation activity was 0.29.

And the Insulin-receptor binding affinity [3]?
Its Insulin-receptor binding affinity is 0.36.

For O=C(O)CCCCCCCCCCCOc1ccc(S(=O)(=O)Nc2ccc(C(=O)NCCOCCOCC(=O)NCCOCCOCC(=O)O)cn2)cc1 [Binder 18], which “NRT [min]” value [1] is on record?
Its value is 12.37 min.

And the autophosphorylation activity [2]?
The autophosphorylation activity was 0.18.

And the Insulin-receptor binding affinity [3]?
The Insulin-receptor binding affinity was 0.23.

Which results are given for O=C(O)CCCCCCCCCOc1ccc(S(=O)(=O)Nc2ccc(C(=O)NCCOCCOCC(=O)NCCOCCOCC(=O)O)cn2)cc1 [Binder 19]?
NRT [min] (net retention time on columns with immobilized human serum albumin) [1]: 10.82 min; Percent remaining insulin analog, Gastric fluid (30 minutes) [5]: 0%; Percent remaining insulin analog, Insulin degrading enzyme, IDE (30 minutes) [4]: 98%; autophosphorylation activity [2]: 0.32; Percent remaining insulin analog, α-Chymotrypsin (120 minutes) [6]: 30%; Percent remaining insulin analog, Cathepsin D (30 minutes) [7]: 0%

Which “NRT [min]” value [1] does the source give for O=C(O)CCCCCCCCCCCCCc1ccc(S(=O)(=O)Nc2ccc(C(=O)NCCOCCOCC(=O)NCCOCCOCC(=O)O)cn2)cc1 [Binder 20] here?
The value was 14.8 min.

What about the autophosphorylation activity [2] of the same compound?
The autophosphorylation activity was 0.28.

What about the Insulin-receptor binding affinity [3] of the same compound?
Its Insulin-receptor binding affinity is 0.4.

How did the “NRT [min]” value [1] turn out when O=C(O)CCCCCCCCCCCCCCCc1cc(Oc2ccc(S(=O)(=O)Nc3ccc(C(=O)NCCOCCOCC(=O)NCCOCCOCC(=O)O)cn3)cc2)ccc1F [Binder 23] was run?
Its value is 15.61 min.

And the “Percent remaining insulin analog, Insulin degrading enzyme, IDE (30 minutes)” value [4]?
The value was 80%.

What about the autophosphorylation activity [2] of the same compound?
Its autophosphorylation activity is 0.37.

And the Insulin-receptor binding affinity [3]?
The Insulin-receptor binding affinity was 0.56.

How did the “NRT [min]” value [1] turn out when O=C(O)CCCCCCCCCCCOc1ccc(CCc2ccc(S(=O)(=O)Nc3ccc(C(=O)NCCOCCOCC(=O)NCCOCCOCC(=O)O)cn3)cc2)cc1 [Binder 25] was run?
The value was 17.48 min.

And the autophosphorylation activity [2]?
Its autophosphorylation activity is 0.03.

What about the Insulin-receptor binding affinity [3] of the same compound?
The Insulin-receptor binding affinity was 0.02.

Which results are given for O=C(O)CCCCCCCCCc1ccc(CCOc2ccc(S(=O)(=O)Nc3ccc(C(=O)NCCOCCOCC(=O)NCCOCCOCC(=O)O)cn3)cc2)cc1 [Binder 26]?
NRT [min] (net retention time on columns with immobilized human serum albumin) [1]: 14.98 min; autophosphorylation activity [2]: 0.07; Insulin-receptor binding affinity [3]: 0.01

O=C(O)CCCCCCCCCCCc1cc(Oc2ccc(S(=O)(=O)Nc3ncc(C(=O)NCCOCCOCC(=O)NCCOCCOCC(=O)O)cn3)cc2)ccc1F [Binder 28] was tested. Which “NRT [min]” value [1] did it give?
Its value is 15.39 min.

And the autophosphorylation activity [2]?
The autophosphorylation activity was 0.11.

What about the Insulin-receptor binding affinity [3] of the same compound?
Its Insulin-receptor binding affinity is 0.12.

O=C(O)CCCCCCCCCCCCCc1ccc(S(=O)(=O)Nc2ccc(C(=O)NCCOCCOCC(=O)NCCOCCOCC(=O)O)cn2)cc1 [Binder 30] was tested. Which “NRT [min]” value [1] did it give?
The value was 14.36 min.

What about the autophosphorylation activity [2] of the same compound?
The autophosphorylation activity was 0.01.

And the Insulin-receptor binding affinity [3]?
The Insulin-receptor binding affinity was 0**.

For O=C(O)CCCCCCCCCCCCCCCCCc1ccc(S(=O)(=O)Nc2ccc(C(=O)NCCOCCOCC(=O)NCCOCCOCC(=O)O)cn2)cc1 [Binder 31], which “NRT [min]” value [1] is on record?
Its value is 15.77 min.

And the autophosphorylation activity [2]?
The autophosphorylation activity was 0.13.

What about the Insulin-receptor binding affinity [3] of the same compound?
Its Insulin-receptor binding affinity is 0.12.

What does the source list for O=C(O)CCCCCCCCCCCCCOc1ccc(S(=O)(=O)Nc2ccc(C(=O)NCCOCCOCC(=O)NCCOCCOCC(=O)O)cn2)cc1 [Binder 32]?
NRT [min] (net retention time on columns with immobilized human serum albumin) [1]: 13.9 min; autophosphorylation activity [2]: 0.04; Insulin-receptor binding affinity [3]: 0

Which “NRT [min]” value [1] does the source give for O=C(O)CCCCCCCCCCCCCOc1ccc(S(=O)(=O)Nc2ncc(C(=O)NCCOCCOCC(=O)NCCOCCOCC(=O)O)cn2)cc1 [Binder 33] here?
The value was 13.57 min.

And the autophosphorylation activity [2]?
Its autophosphorylation activity is 0.02.

And the Insulin-receptor binding affinity [3]?
Its Insulin-receptor binding affinity is 0.01.

With O=C(O)CCCCCCCCCCCCCCCOc1ccc(S(=O)(=O)Nc2ccc(C(=O)NCCOCCOCC(=O)NCCOCCOCC(=O)O)cn2)c(Cl)c1Cl [Binder 36] as the compound, how does the “NRT [min]” value [1] read?
Its value is 13.89 min.

And the autophosphorylation activity [2]?
The autophosphorylation activity was 0.23.

And the Insulin-receptor binding affinity [3]?
The Insulin-receptor binding affinity was 0.17.

Which “NRT [min]” value [1] does the source give for O=C(O)CCCCCCCCCCCCCCCOc1ccc(S(=O)(=O)Nc2ccc(C(=O)NCCOCCOCC(=O)NCCOCCOCC(=O)O)cn2)cc1F [Binder 39] here?
The value was 13.68 min.

What about the autophosphorylation activity [2] of the same compound?
The autophosphorylation activity was 0.02.

What about the Insulin-receptor binding affinity [3] of the same compound?
Its Insulin-receptor binding affinity is 0.

Which results are given for O=C(O)CCCCCCCCCCCc1cccc(S(=O)(=O)Nc2ccc(C(=O)NCCOCCOCC(=O)NCCOCCOCC(=O)O)cn2)c1 [Binder 40]?
NRT [min] (net retention time on columns with immobilized human serum albumin) [1]: 11.44 min; autophosphorylation activity [2]: 0.01; Insulin-receptor binding affinity [3]: 0.01
